# Results: patent US11311522B1 (Cavion, Inc., priority 2018, dated 2022)
# Where two headings read alike, the source gives them in different places.
# Key:
# [1] = Phase 1 single-dose pharmacokinetics (PN001, PN002/Part I, PN003, PN005); type: in vivo, human; conditions: 8 mg CX-8998
# [2] = Simulated Css and total active moiety, 10 mg BID; set-up: species or system human; conditions: for Css, estimated mean / Steady-state AUC24, estimated mean: M01, CX-8998 10 mg twice daily fasted
# [3] = biological target: T1, Cav3.3 (Homo sapiens, UniProt Q9P0X4); test: Cav3.3 FLIPR calcium influx assay (HEK 293 cells); type: cell-based; conditions: for IC50: Cav3.3 FLIPR assay
# T1 construct: expressed in transfected cells; host or cells: HEK 293
# [4] = Pharmacokinetics in dogs; type: in vivo, dog
# Procedure: (§2) The validity and reproducibility of the assays were determined, and the precision and accuracy for calibration standards and quality control samples were examined. […] The analytes were stable in plasma under the storage and assay conditions. […] Assay performances were satisfactory and met acceptance criteria for system performance suitability, quantitation range, calibration linearity, assay accuracy and precision, and assay recovery.
# [5] = Pharmacokinetics in rhesus monkeys; type: in vivo, rhesus monkey
# Procedure: as §2
# [6] = In vitro plasma protein binding, rat; type: in vitro ADME
# Source text: (§1) CX-8998 distributes readily to the brain in rats and to brain and cerebral spinal fluid (CSF) in dogs.
# [7] = In vitro plasma protein binding, dog; type: in vitro ADME
# Source text: as §1
# [8] = In vitro plasma protein binding, monkey; type: in vitro ADME
# Source text: as §1
# [9] = In vitro plasma protein binding, human; type: in vitro ADME
# [10] = biological target: T2, breast cancer resistance protein (BCRP) (Homo sapiens, UniProt Q9UNQ0); test: BCRP transport; type: in vitro ADME; conditions: 30 μM
# T2 sequence (Q9UNQ0 1-655): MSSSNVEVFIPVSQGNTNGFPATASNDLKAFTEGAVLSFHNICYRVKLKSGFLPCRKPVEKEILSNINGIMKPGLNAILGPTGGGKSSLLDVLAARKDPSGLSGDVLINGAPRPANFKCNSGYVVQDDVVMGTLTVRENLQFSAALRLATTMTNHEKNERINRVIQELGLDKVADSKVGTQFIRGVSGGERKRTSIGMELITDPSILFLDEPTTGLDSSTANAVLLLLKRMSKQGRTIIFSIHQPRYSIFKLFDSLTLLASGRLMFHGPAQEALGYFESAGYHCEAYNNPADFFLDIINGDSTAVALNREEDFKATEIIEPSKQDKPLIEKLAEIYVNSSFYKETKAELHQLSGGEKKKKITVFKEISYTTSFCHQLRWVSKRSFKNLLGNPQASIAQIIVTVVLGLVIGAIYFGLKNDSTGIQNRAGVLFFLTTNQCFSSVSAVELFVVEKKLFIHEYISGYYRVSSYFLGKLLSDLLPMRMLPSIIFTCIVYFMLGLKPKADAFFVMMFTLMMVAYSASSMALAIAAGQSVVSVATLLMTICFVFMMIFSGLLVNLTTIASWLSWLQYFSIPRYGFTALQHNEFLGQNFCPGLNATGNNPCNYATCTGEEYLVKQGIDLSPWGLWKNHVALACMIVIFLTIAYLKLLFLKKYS
# Source text: Glucuronide conjugates of the oxygenated metabolites are detected in human, monkey, and dog hepatocyte preparations. […] However, the abundance of CYP3A5, CYP2C19, and CYP2D6 in human liver microsomes is low (2%-5%) relative to the primary contributors, CYP3A4 (˜30%) and CYP2C9 (˜20%). […] Information on reproductive and developmental toxicology was obtained in a 28-day pivotal female fertility study in rats and in preliminary embryo-fetal development studies in rats and rabbits.
# [11] = tested on: CYP1A2, CYP3A4, CYP2C8, CYP2C9, CYP2C19, CYP2D6, CYP2B6; test: CYP inhibition in human liver microsomes; type: in vitro ADME
# [12] = for Day 90 Free Margin for AUC24 at NOAEL for Dog 90-Day Toxicology / Day 90 Free Plasma AUC24 at NOAEL for Dog 90-Day Toxicology: Beagle; for Day 90 Free Plasma AUC24 at NOAEL for Dog 90-Day Toxicology: 30 mg/kg/day; for Day 90 Free Plasma AUC24 at NOAEL for Rat 90-Day Toxicology: 300 mg/kg/day
# [13] = in vivo; conditions: rat, po
# [14] = clinical; conditions: human, plasma, oral, 8 mg
# Source text: Subjects will be screened for study eligibility within 28 days before administration of the first dose of study drug. Subjects who meet the study eligibility criteria will be admitted to the clinical research unit in the afternoon of the day before administration of the first dose of study drug (Period 1/Day −1).
# Treatments A, B, and C will be separated by a minimum 7-day washout period. […] Administration of Treatment D may be separated from administration of Treatments A, B, and C by approximately 4 weeks to allow for analysis of the bioanalytical samples from the first 3 treatments.
# [15] = 4-week oral toxicology in Beagle dogs; conditions: dog, in vivo
# [16] = Crossover bioavailability study IR vs MR1 vs MR2 capsules: PK; set-up: AUC72hr: unit not given beside the values; conditions: for AUC72hr Ratio / Cmax Ratio: metabolite to CX-8998; for AUC72hr / Cmax / Tmax: plasma
# [17] = simulated from CX-8998 10 mg BID
# [18] = single 8 mg dose of MR1 CX-8998
# [19] = single 8 mg dose of MR2 CX-8998
# [20] = following a single 8 mg dose of MR1 CX-8998
# [21] = following a single 8 mg dose of MR2 CX-8998
# T1 sequence (Q9P0X4 whole entry, species assumed): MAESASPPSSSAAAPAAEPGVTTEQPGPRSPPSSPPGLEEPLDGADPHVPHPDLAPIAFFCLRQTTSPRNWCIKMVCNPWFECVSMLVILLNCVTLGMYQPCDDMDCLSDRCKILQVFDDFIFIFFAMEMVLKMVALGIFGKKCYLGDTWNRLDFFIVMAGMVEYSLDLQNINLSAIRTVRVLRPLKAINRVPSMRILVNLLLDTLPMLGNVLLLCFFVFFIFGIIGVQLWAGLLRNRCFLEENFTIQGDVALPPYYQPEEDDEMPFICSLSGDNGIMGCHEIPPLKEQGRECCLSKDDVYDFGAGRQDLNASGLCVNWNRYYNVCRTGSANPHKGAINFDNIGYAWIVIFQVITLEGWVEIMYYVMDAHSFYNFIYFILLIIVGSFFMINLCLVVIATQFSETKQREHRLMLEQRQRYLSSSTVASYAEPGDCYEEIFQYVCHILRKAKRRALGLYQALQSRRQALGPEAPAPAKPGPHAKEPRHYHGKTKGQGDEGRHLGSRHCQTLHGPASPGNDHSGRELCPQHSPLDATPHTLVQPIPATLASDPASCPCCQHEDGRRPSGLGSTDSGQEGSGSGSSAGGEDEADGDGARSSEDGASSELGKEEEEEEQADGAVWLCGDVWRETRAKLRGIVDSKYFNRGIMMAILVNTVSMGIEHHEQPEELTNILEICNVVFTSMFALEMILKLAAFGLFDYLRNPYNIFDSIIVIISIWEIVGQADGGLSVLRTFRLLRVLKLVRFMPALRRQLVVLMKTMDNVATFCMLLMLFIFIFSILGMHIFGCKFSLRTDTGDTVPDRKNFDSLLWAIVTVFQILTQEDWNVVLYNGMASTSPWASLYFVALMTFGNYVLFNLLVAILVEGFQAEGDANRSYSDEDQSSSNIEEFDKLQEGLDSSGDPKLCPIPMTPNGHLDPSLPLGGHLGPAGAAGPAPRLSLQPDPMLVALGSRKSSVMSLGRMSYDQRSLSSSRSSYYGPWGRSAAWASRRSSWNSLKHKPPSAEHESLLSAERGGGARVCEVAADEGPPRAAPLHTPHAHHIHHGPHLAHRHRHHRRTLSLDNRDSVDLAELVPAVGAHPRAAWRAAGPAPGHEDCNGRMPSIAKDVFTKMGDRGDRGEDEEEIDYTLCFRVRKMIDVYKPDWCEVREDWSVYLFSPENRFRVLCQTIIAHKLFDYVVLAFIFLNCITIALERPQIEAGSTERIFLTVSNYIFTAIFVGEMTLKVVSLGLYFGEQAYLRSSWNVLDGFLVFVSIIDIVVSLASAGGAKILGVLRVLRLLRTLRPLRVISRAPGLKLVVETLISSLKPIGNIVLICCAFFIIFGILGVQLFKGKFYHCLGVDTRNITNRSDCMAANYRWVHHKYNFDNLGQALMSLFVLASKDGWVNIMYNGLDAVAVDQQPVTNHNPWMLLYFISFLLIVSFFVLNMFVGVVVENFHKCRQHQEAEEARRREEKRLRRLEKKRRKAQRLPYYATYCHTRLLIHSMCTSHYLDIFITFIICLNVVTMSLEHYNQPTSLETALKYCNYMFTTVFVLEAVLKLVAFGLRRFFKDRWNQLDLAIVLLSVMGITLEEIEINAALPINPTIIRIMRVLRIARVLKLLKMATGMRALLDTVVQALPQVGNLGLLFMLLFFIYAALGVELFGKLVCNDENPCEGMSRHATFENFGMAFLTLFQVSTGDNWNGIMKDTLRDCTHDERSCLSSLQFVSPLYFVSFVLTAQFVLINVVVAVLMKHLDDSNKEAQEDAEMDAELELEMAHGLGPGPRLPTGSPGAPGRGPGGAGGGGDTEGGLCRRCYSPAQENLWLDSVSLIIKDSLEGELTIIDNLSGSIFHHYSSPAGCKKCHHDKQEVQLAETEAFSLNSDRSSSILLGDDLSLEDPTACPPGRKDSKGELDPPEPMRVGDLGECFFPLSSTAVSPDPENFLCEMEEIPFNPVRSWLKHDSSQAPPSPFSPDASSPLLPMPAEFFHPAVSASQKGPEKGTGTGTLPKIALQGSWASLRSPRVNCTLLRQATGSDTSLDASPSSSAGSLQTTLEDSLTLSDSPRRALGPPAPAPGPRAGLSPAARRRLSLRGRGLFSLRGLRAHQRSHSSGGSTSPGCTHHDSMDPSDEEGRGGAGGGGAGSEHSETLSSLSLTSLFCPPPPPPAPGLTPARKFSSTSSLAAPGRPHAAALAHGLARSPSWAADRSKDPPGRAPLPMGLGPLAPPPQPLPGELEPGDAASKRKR
compound,measurement,setting,value
C=C(C)c1ccc(CC(=O)N[C@H](C)c2ccc(OCC(F)(F)F)cn2)cc1 [M01],"AUCinf, middle-aged and elderly female vs male subjects",[1],2% lower
same,"Cmax, middle-aged and elderly female vs male subjects",[1],12% lower
same,Potency relative to CX-8998,[2],1.57
same,"Css, estimated mean",[2]; middle-aged and elderly men,1167 nM
same,"Steady-state AUC24, estimated mean",[2]; middle-aged and elderly men,28.008 µM·h
same,"Css, estimated mean",[2]; middle-aged and elderly women,1146 nM
same,"Steady-state AUC24, estimated mean",[2]; middle-aged and elderly women,27.504 µM·h
same,"Css, estimated mean",[2]; young men,771 nM
same,"Steady-state AUC24, estimated mean",[2]; young men,18.504 µM·h
same,"Cu, ss_adj","[2]; adjusted for fu and potency, 10 mg BID",<1.2 nM
same,"Cp, ss",[2]; [17],771 nM
same,"Cu, ss",[2]; [17],<0.8 nM
same,IC50,"[3]; depolarized, read-out: Depolarized FLIPR potency",2.3 nM
same,IC50,"[3]; hyperpolarized, read-out: Hyperpolarized FLIPR potency",86 nM
same,State dependence,[3]; hyperpolarized versus depolarized FLIPR potency,37 fold
same,Ratio of AUC24 (metabolite/CX-8998),"[4]; Dog, Male, single oral dose 0.5 mg/kg of CX-8998",0.21
same,AUC,"[4]; male, dog, plasma, po, 0.5 mg/kg, read-out: AUC24",1.4 µM·h
same,Ratio of AUC24 (metabolite/CX-8998),"[5]; Monkey, Male, single oral dose 2 mg/kg of CX-8998",0.24
same,AUC,"[5]; male, rhesus monkey, plasma, po, 2 mg/kg, read-out: AUC24",0.5 µM·h
same,fraction unbound,"[6]; rat plasma, read-out: In vitro plasma protein binding (converted)",0.004
same,fraction unbound,"[6]; rats, read-out: free fraction",0.004
same,fraction unbound,"[7]; dog plasma, read-out: In vitro plasma protein binding (converted)",0.003
same,fraction unbound,"[7]; dogs, read-out: free fraction",0.003
same,fraction unbound,[7]; read-out: Free fraction in dog plasma,0.003
same,fraction unbound,[8],0.004
same,fraction unbound,"[9]; human plasma, read-out: Human-free fraction",< 0.001
same,fraction unbound,"[9]; human plasma, read-out: In vitro plasma protein binding (converted)",< 0.001
same,fraction unbound,"[9]; humans, read-out: free fraction",< 0.001
same,Inhibition of BCRP transport,[10],57%
same,Time-dependent inhibition of CYP3A4 or CYP2B6,[11],insignificant
same,Day 90 Free Margin for AUC24 at NOAEL for Dog 90-Day Toxicology,[12]; female,>16
same,Day 90 Free Plasma AUC24 at NOAEL for Dog 90-Day Toxicology,[12]; female,<309 nM · hr
same,Day 90 Free Margin for AUC24 at NOAEL for Rat 90-Day Toxicology,[12]; female,>49
same,Day 90 Free Plasma AUC24 at NOAEL for Rat 90-Day Toxicology,[12]; female,<936 nM · hr
same,Day 90 Free Margin for AUC24 at NOAEL for Dog 90-Day Toxicology,[12]; male,>19
same,Day 90 Free Plasma AUC24 at NOAEL for Dog 90-Day Toxicology,[12]; male,<363 nM · hr
same,Day 90 Free Margin for AUC24 at NOAEL for Rat 90-Day Toxicology,[12]; male,>26
same,Day 90 Free Plasma AUC24 at NOAEL for Rat 90-Day Toxicology,[12]; male,<500 nM · hr
same,AUC,"[13]; female, 5 mg/kg",5.02 µM·h
same,AUC,"[13]; female, 15 mg/kg",20.3 µM·h
same,AUC,"[13]; female, 100 mg/kg",231 µM·h
same,AUC,"[13]; female, 300 mg/kg",234 µM·h
same,AUC,"[13]; male, 5 mg/kg",4.33 µM·h
same,AUC,"[13]; male, 15 mg/kg",11.3 µM·h
same,AUC,"[13]; male, 100 mg/kg",85.9 µM·h
same,AUC,"[13]; male, 300 mg/kg",125 µM·h
same,AUC(0-t),[14],6.88 µM·h
same,Cmax,[14],124 nM
same,Tmax,[14],29 h
same,Safety margin (AUC24) at the NOEL over expected clinical exposure,[15],~6 fold
same,AUC72hr Ratio,[16]; single 8 mg dose of IR CX-8998,0.92
same,Cmax Ratio,[16]; single 8 mg dose of IR CX-8998,0.14
same,AUC72hr Ratio,[16]; [18],0.95
same,Cmax Ratio,[16]; [18],0.27
same,AUC72hr Ratio,[16]; [19],0.90
same,Cmax Ratio,[16]; [19],0.35
same,AUC72hr,[16]; [20],7118
same,Cmax,[16]; [20],121 nM
same,Tmax,[16]; [20],26 h
same,AUC72hr,[16]; [21],6395
same,Cmax,[16]; [21],113 nM
same,Tmax,[16]; [21],39 h
